How the values were obtained:
[1] = target: T1, Tie2 receptor tyrosine kinase (Homo sapiens, UniProt Q02763); assay: Cellular Tie2 autophosphorylation assay (Test (b)); format: cell-based; design: one can use natural cell lines or primary cells which are known to express the receptor of choice; endogenous in cells; host or cells: EA.hy926/B3 cells (HUVEC named as alternative); details: Ang1 ligand stimulated whole cells (e.g. EA.hy926/B3); read-out: IC50 (μM) Test (b): Inhibition of autophosphorylation of Tie2 receptor tyrosine kinase
Text: b. Cellular Tie2 Autophosphorylation Assay
This assay is based on measuring the ability of compounds to inhibit autophosphorylation of the Tie2 receptor which normally leads to the production of “activated” receptor that in turn initiates the particular signal transduction pathways associated with the receptor function.
Autophosphorylation can be achieved by a number of means. It is known that expression of recombinant kinase domains in baculoviral systems can lead to the production of phosphorylated and activated receptor. It is also reported that over expression of receptors in recombinant cell lines can itself lead to receptor autophosphorylation in the absence of the ligand (Heldin C-H. 1995 Cell: 80, 213-223; Blume-J. P, Hunter T. 2001 Nature: 411, 355-65). Furthermore, there are numerous literature examples in which chimaeric receptors have been constructed. In these cases the natural, external cell surface domain of the receptor has been replaced with that of a domain which is known to be readily dimerised via the addition of the appropriate ligand (e.g. TrkA-Tie2/NGF ligand (Marron, M. B., et al., 2000 Journal of Biological Chemistry: 275:39741-39746) or C-fms-Tie-1/CSF-1 ligand (Kontos, C. D., et al., 2002 Molecular and Cellular Biology: 22, 1704-1713). Thus when the chimaeric receptor expressed in a host cell line and the respective ligand is added, this induces autophosphorylation of the chimeric receptor's kinase domain. This approach has the advantage of often allowing a known (and often easily obtained) ligand to be used instead of having to identify and isolate the natural ligand for each receptor of interest.
Naturally if the ligand is available one can use natural cell lines or primary cells which are known to express the receptor of choice and simply stimulate with ligand to achieve ligand induced phosphorylation. […]
Target sequence in this assay (Q02763 23-1124): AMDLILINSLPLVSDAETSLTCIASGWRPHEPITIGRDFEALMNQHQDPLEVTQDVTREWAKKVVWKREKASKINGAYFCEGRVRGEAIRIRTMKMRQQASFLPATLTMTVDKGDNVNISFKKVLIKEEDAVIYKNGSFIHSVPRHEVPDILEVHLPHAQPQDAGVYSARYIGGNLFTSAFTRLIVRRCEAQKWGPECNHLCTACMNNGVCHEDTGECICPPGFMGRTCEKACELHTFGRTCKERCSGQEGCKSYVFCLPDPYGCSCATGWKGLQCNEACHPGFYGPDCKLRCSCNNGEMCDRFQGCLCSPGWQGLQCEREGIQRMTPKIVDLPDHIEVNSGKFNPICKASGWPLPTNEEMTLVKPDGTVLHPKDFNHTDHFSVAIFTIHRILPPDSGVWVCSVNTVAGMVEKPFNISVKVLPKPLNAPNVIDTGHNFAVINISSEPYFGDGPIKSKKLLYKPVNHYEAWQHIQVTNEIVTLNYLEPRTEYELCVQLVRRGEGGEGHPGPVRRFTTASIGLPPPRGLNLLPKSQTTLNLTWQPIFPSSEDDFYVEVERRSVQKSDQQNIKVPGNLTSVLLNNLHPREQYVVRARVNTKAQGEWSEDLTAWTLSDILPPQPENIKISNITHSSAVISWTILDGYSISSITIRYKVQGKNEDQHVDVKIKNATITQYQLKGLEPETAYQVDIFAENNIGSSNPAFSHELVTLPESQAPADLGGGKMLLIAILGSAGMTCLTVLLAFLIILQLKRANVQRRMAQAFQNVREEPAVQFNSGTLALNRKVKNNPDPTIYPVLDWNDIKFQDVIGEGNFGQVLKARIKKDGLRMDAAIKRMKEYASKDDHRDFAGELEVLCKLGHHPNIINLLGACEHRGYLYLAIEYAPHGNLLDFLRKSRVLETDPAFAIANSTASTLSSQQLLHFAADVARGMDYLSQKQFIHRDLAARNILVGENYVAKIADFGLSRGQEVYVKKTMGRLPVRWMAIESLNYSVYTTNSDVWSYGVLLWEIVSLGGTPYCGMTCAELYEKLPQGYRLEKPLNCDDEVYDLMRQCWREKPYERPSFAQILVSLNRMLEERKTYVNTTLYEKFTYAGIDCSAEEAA

[2] = target: T1, Tie2 receptor tyrosine kinase; assay: In vitro receptor tyrosine kinase inhibition assay (ELISA, Test (a)); format: biochemical; design: consist of only the intracellular portion C-terminal portion of the respective receptor, within which is found the kinase domain; made in house; host or cells: baculovirus/Sf21 insect cells; cleared lysate used without purification; details: recombinant human Tie2 kinase domain, peptide substrate
Protocol: a. In Vitro Receptor Tyrosine Kinase Inhibition Assay
To test for inhibition of Tie2 receptor tyrosine kinase, compounds are evaluated in a non-cell based protein kinase assay by their ability to inhibit the protein kinase enzyme phosphorylation of a tyrosine containing polypeptide substrate in an ELISA based microtitre plate assay. In this particular case, the assay was to determine the IC50, for three different recombinant human tyrosine kinases Tie2, KDR and Flt.
To facilitate production of the tyrosine kinases, recombinant receptor genes were produced using standard molecular biology cloning and mutagenesis techniques. These recombinant proteins fragments encoded within these genes consist of only the intracellular portion C-terminal portion of the respective receptor, within which is found the kinase domain. The recombinant genes encoding the kinase domain containing fragments were cloned and expressed in standard baculovirus/Sf21 system (or alternative equivalent). […]
Constitutive kinase activity of these recombinant proteins was determined by their ability to phosphorylate a synthetic peptide (made up of a random co-polymer of Glutamic Acid, Alanine and Tyrosine in the ratio of 6:3:1). […]
The immobilised phospho-peptide product of the reaction was detected by immunological methods. […] Following extensive washing with PBS-T, HRP activity in each well of the plate was measured […] using 22′-Azino-di-[3-ethylbenzthiazoline sulfonate (6)] diammonium salt crystals ABTS (Sigma P4922—prepared as per manufactures instructions) as a substrate incubated for 30-45 minutes to allow colour development, before 100 ul of 1M H2SO4 was added to stop the reaction.
Quantification of colour development and thus enzyme activity was achieved by the measurement of absorbance at 405 nm on a Molecular Devices ThermoMax microplate reader. Kinase inhibition for a given compound was expressed as an IC50 value. […] The range of phosphorylation was calculated from the positive (vehicle plus ATP) and negative (vehicle minus ATP) control values.
Target sequence in this assay (Q02763 770-1124 limits assumed): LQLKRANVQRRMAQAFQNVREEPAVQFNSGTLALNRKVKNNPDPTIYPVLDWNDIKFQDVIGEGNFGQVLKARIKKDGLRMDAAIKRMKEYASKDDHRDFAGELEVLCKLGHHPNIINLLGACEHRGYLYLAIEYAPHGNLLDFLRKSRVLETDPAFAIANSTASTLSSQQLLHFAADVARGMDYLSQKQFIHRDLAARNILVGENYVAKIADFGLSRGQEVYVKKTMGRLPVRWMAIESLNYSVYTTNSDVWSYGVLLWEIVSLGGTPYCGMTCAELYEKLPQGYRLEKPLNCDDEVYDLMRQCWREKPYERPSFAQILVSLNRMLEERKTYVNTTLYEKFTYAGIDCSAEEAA

IC50 [1] [µM]	IC50 [2] [µM]	SMILES
0.031	2.6	CC(C)(C)c1cc(NC(=O)Nc2cccc(C#Cc3ccc(N)nc3)c2)no1 [Example 2, N-{3-[(6-aminopyridin-3-yl)ethynyl]phenyl}-N′-(5-tert-butylisoxazol-3-yl)urea]
0.077	8.2	CC(C)(C)c1cc(NC(=O)Nc2cccc(C#Cc3cccnc3N)c2)no1 [Example 3, N-2{3-[(2-aminopyridin-3-yl)ethynyl]phenyl}-N′-(5-tert-butylisoxazol-3-yl)urea]
0.02	4.4	CC(C)(C)c1cc(NC(=O)Nc2cccc(C#Cc3cnc(N)cn3)c2)no1 [Example 5, N-{3-[(5-aminopyrazin-2-yl)ethynyl]phenyl}-N′-(5-tert-butylisoxazol-3-yl)urea]

Reference: patent US20080153838A1, “Compounds Having Tie2 (Tek) Activity” (ASTRAZENECA AB, priority 2005, published 2008)
